Laboratory results taken from US20160129011A1, “BICYCLO 2,3-BENZODIAZEPINES AND SPIROCYCLICALLY SUBSTITUTED 2,3-BENZODIAZEPINES” (BAYER PHARMA AKTIENGESELLSCHAFT, priority 2013, published 2016).

Key:
MOLP-8 cells = experiment: Cell proliferation assay (alamarBlue), MOLP-8; assay type: cell-based; settings: Homo sapiens, MOLP-8; multiple myeloma cell line, 120 h incubation
Method: (§1) In accordance with the invention, the ability of the substances to inhibit cell proliferation was determined. Cell viability was determined by means of the alamarBlue® reagent (Invitrogen) in a Victor X3 Multilabel Reader (Perkin Elmer). The excitation wavelength was 530 nm and the emission wavelength […].
The MOLP-8 cells (DSMZ, ACC 569) were sown at a concentration of 4000 cells/well in 100 μl of growth medium (RPMI1640, 20% FCS) on 96-well microtitre plates.
(§2) The MDA-MB-231 cells (DSMZ, ACC 732) were sown at a concentration of 4000 cells/well in 100 μl of growth medium (DMEM/Ham's F12 medium, 10% FCS) on 96-well microtitre plates. After overnight incubation at 37° C., the fluorescence values (CI values) were determined. Then the plates were treated with various substance dilutions (1E-5 M, 3E-6 M, 1E-6 M, 3E-7 M, 1E-7 M, 3E-8 M, 1E-8 M) and incubated at 37° C. for 72 (MV4-11, LOX-IMVI cells), 96 (MOLM-13, B16F10, […] cells), 120 (MOLP-8, KMS-12-PE cells) or 168 (LAPC-4 cells) hours. Subsequently, the fluorescence values were determined (CO values). For the data analysis, the CI values were subtracted from the CO values and the results were compared between cells which had been treated with various dilutions of the substance or only with buffer solution. This was used to calculate the IC50 values (substance concentration required for 50% inhibition of cell proliferation).
(§3) The substances were examined in the cell lines of Table 1 which, in an exemplary manner, represent the stated indications: […]

LOX-IMVI cells = experiment: Cell proliferation assay (alamarBlue), LOX IMVI; assay type: cell-based; settings: Homo sapiens, melanoma (BRAF mutated) cell line, 72 h incubation
Method: as §1
The LOX-IMVI cells (NCI-60) were sown at a concentration of 1000 cells/well in 100 μl of growth medium (RPMI1640, 10% FCS) on 96-well microtitre plates.
as §2, with “proliferation). […]” for “proliferation).”

MV4-11 cells = experiment: Cell proliferation assay (alamarBlue), MV4-11; assay type: cell-based; settings: Homo sapiens, acute myeloid leukaemia cell line, 72 h incubation
Method: as §1
The MV4-11 cells (ATCC, CRL 9591) were sown at a concentration of 5000 cells/well in 100 μl of growth medium (RPMI1640, 10% FCS) on 96-well microtitre plates.
as §2, with “proliferation). […]” for “proliferation).”

LAPC-4 cells = experiment: Cell proliferation assay (alamarBlue), LAPC-4; assay type: cell-based; settings: Homo sapiens, LAPC4; prostate cancer cell line, 1 nM methyltrienolone, 168 h incubation
Method: as §1
The LAPC-4 cells (ATCC, PTA-1441TM) were sown at a concentration of 4000 cells/well in 100 μl of growth medium (RPMI1640, 2 mM L-glutamine, 10% cFCS) on 96-well microtitre plates. One day later, the LAPC-4 cells were treated with 1 nM methyltrienolone and various substance dilutions.
as §2, with “For the data analysis, the CI values were subtracted from the CO values and the results were compared between cells which had been treated with various dilutions of the substance or only with buffer solution. This was used to calculate the IC50 values (substance concentration required for 50% inhibition of cell proliferation).” left out

B16F10 cells = experiment: Cell proliferation assay (alamarBlue), B16F10; assay type: cell-based; settings: Mus musculus, B16-F10; melanoma (BRAF wild-type) cell line, 96 h incubation
Method: as §1
The B16F10 cells (ATCC, CRL-6475) were sown at a concentration of 300-500 cells/well in 100 μl of growth medium (DMEM with phenol red, 10% FCS) on 96-well microtitre plates.
as §2, §3

MDA-MB-231 cells = experiment: Cell proliferation assay (alamarBlue), MDA-MB-231; assay type: cell-based; settings: Homo sapiens, mammary carcinoma cell line, 96 h incubation
Method: as §1, §2, §3

MOLM-13 cells = experiment: Cell proliferation assay (alamarBlue), MOLM-13; assay type: cell-based; settings: Homo sapiens, MOLM-13; acute myeloid leukaemia cell line, 96 h incubation
Outline: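 MOLM-13 cells in RPMI1640/10% FCS were plated overnight, then exposed to seven compound dilutions (1E-5 to 1E-8 M) for 96 h at 37 °C. Viability was read by alamarBlue fluorescence (ex 530/em 590 nm). Pre-treatment readings were subtracted, and IC50 was calculated against buffer-treated cells.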

BRD4 (BD1) = target: T1, BRD4 (BD1) (Homo sapiens, UniProt O60885); experiment: Binding assay BRD4/acetylated peptide H4 (TR-FRET protein-protein interaction assay); settings: BRD4 (BD1) / acetylated histone H4 peptide
T1 construct: longer constructs also being possible, preferably amino acids 44-168; made in house; host or cells: E. coli
Outline: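 His6-tagged BRD4 BD1 (aa 67-152, E. coli-expressed, typically 10 nM) was used with a biotinylated tetra-acetylated H4 peptide, and compounds at 0.1 nM–20 μM in duplicate. After 10 min preincubation, mixtures were incubated 1 h at 22 °C, then ≥3 h at 4 °C. Read-out was the TR-FRET 665/622 nm ratio (Eu-streptavidin to anti-His-XL665); IC50 from a 4-parameter fit.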

KMS-12-PE cells = experiment: Cell proliferation assay (alamarBlue), KMS-12-PE; assay type: cell-based; settings: Homo sapiens, multiple myeloma cell line, 120 h incubation
Method: as §1
The KMS-12-PE cells (DSMZ, ACC 606) were sown at a concentration of 4000 cells/well in 100 μl of growth medium (RPMI1640, 20% FCS) on 96-well microtitre plates.
as §2, with “proliferation). […]” for “proliferation).”

SMILES	IC50 (MV4-11 cells)	IC50 (B16F10 cells)	IC50 (MDA-MB-231 cells)	IC50 (MOLM-13 cells)	IC50 (BRD4 (BD1))	IC50 (MOLP-8 cells)	IC50 (LOX-IMVI cells)	IC50 (LAPC-4 cells)	IC50 (KMS-12-PE cells)
CNC(=O)N1N=C(c2ccc(N3C[C@H]4CC[C@@H](C3)O4)cc2)c2cc(OC)c(OC)cc2C[C@@H]1C [Example 4.2, (4S)-7,8-dimethoxy-N,4-dimethyl-1-[4-(8-oxa-3-azabicyclo[3.2.1]oct-3-yl)phenyl]-4,5-dihydro-3H-2,3-benzodiazepine-3-carboxamide]	30 nM	20 nM	40 nM	40 nM	10 nM	20 nM	170 nM	10 nM	30 nM
CNC(=O)N1N=C(c2ccc(N3C[C@@H]4C[C@H]3CN4)cc2)c2cc(OC)c(OC)cc2CC1C (relative stereo) [Example 19, [1S-(1R*,4R*)]-1-[4-(2,5-Diazabicyclo[2.2.1]hept-2-yl)phenyl]-7,8-dimethoxy-4,5-dihydro-N,4-dimethyl-3H-2,3-benzodiazepine-3-carboxamide]	–	150 nM	–	170 nM	140 nM	100 nM	–	–	–
CNC(=O)N1N=C(c2ccc(N3CCCC4(COC4)C3)cc2)c2cc(OC)c(OC)cc2CC1C (racemic) [Example 11, (±)-7,8-dimethoxy-N,4-dimethyl-1-[4-(2-oxa-6-azaspiro[3.5]non-6-yl)phenyl]-4,5-dihydro-3H-2,3-benzodiazepine-3-carboxamide]	–	100 nM	–	160 nM	60 nM	100 nM	–	–	–
CNC(=O)N1N=C(c2ccc(N3CC4(CN(C(=O)OC(C)(C)C)C4)C3)cc2)c2cc(OC)c(OC)cc2CC1C (racemic) [Example 8, tert-butyl 6-{4-[(±)-7,8-dimethoxy-4-methyl-3-(methylcarbamoyl)-4,5-dihydro-3H-2,3-benzodiazepine-1-yl]phenyl}-2,6-diazaspiro[3.3]heptane-2-carboxylate]	–	180 nM	–	260 nM	140 nM	160 nM	–	–	–
CNC(=O)N1N=C(c2ccc(F)c(N3C[C@@H]4C[C@H]3CN4)c2)c2cc(OC)c(OC)cc2CC1C (relative stereo) [Example 20, [1S-(1R*,4R*)]-1-[3-(2,5-diazabicyclo[2.2.1]hept-2-yl)-4-fluorophenyl]-7,8-dimethoxy-4,5-dihydro-N,4-dimethyl-3H-2,3-benzodiazepine-3-carboxamide]	–	1430 nM	–	1070 nM	410 nM	770 nM	–	–	–
CNC(=O)N1N=C(c2cccc(N3CC4(CCS4(=O)=O)C3)c2)c2cc(OC)c(OC)cc2CC1C (racemic) [Example 14, 1-[3-(1,1-dioxido-1-thia-6-azaspiro[3.3]hept-6-yl)phenyl]-7,8-dimethoxy-N,4-dimethyl-4,5-dihydro-3H-2,3-benzodiazepine-3-carboxamide]	–	260 nM	–	330 nM	170 nM	240 nM	–	–	–
CNC(=O)N1N=C(c2ccc(N3CC4(CCS4(=O)=O)C3)cc2)c2cc(-n3nc(C)cc3C)ccc2C[C@@H]1C [Example 17.2, (4S)-8-(3,5-Dimethyl-1H-pyrazol-1-yl)-1-[4-(1,1-dioxido-1-thia-6-azaspiro[3.3]hept-6-yl)phenyl]-N,4-dimethyl-4,5-dihydro-3H-2,3-benzodiazepine-3-carboxamide]	–	80 nM	–	100 nM	10 nM	60 nM	–	–	–

Now from value to compound, other results behind:

IC50 (MV4-11 cells)	IC50 (B16F10 cells)	IC50 (MDA-MB-231 cells)	IC50 (MOLM-13 cells)	IC50 (BRD4 (BD1))	SMILES	IC50 (MOLP-8 cells)	IC50 (LOX-IMVI cells)	IC50 (LAPC-4 cells)	IC50 (KMS-12-PE cells)
–	60 nM	–	70 nM	40 nM	CNC(=O)N1N=C(c2ccc(N3CC4(CCS4(=O)=O)C3)cc2)c2cc(OC(F)(F)F)ccc2CC1C (racemic) [Example 18, (±)-1-[4-(1,1-dioxido-1-thia-6-azaspiro[3.3]hept-6-yl)phenyl]-N,4-dimethyl-8-(trifluoromethoxy)-4,5-dihydro-3H-2,3-benzodiazepine-3-carboxamide]	60 nM	–	–	–
–	30 nM	–	30 nM	10 nM	CNC(=O)N1N=C(c2ccc(N3CC4(CCS4(=O)=O)C3)cc2)c2cc(OC(F)(F)F)ccc2C[C@@H]1C [Example 18.2, (4S)-1-[4-(1,1-dioxido-1-thia-6-azaspiro[3.3]hept-6-yl)phenyl]-N,4-dimethyl-8-(trifluoromethoxy)-4,5-dihydro-3H-2,3-benzodiazepine-3-carboxamide]	30 nM	–	–	–
40 nM	40 nM	80 nM	70 nM	20 nM	CNC(=O)N1N=C(c2ccc(N3CC4(CCS4(=O)=O)C3)cc2)c2cc(OC)c(OC)cc2C[C@@H]1C [Example 3.1, (4S)-1-[4-(1,1-Dioxido-1-thia-6-azaspiro[3.3]hept-6-yl)phenyl]-7,8-dimethoxy-N,4-dimethyl-4,5-dihydro-3H-2,3-benzodiazepine-3-carboxamide]	40 nM	280 nM	20 nM	50 nM
–	1470 nM	–	1140 nM	430 nM	CNC(=O)N1N=C(c2ccc(F)c(N3C[C@@H]4C[C@H]3CN4C)c2)c2cc(OC)c(OC)cc2CC1C (relative stereo) [Example 41, [1S-(1R*,4R*)]-1-[4-fluoro-3-(5-methyl-2,5-diazabicyclo[2.2.1]hept-2-yl)phenyl]-7,8-dimethoxy-4,5-dihydro-N,4-dimethyl-3H-2,3-benzodiazepine-3-carboxamide]	690 nM	–	–	–
